In US9683014B2, “Dipeptide mimetics of NGF and BDNF neurotrophins” (UCHREZHDENIE ROSSIISKOI AKADEMII MEDITSYNSKIKH NAUK …, priority 2009, dated 2017):
Numbered stars: 1 amine (or outer) side, 2 acyl side, 3 side chain; on linkers, the order of the positions; unused ones are H or OH. Square brackets hold non-standard residues; d marks the D form. Peptide text beside a SMILES is read from it. Suc = O=C(CCC(=O)[*:2])[*:1]; Ahx = NCCCCCC(=O)O

Tests used:
HT-22 cells [1] = experiment: Oxidative stress (H2O2) model in cultured HT-22 cells (MTT test); type: cell-based, mouse; conditions: for neuronal survival under oxidative stress: added 24 hours prior to the stress exposure, 10^−8 M to 10^−5 M; for Optical density (MTT): 24 h before H2O2
Procedure: To induce an oxidative stress, the cells were placed in a growth medium containing 5% FBS, then a freshly prepared H2O2 solution was added to a final concentration of 1.5 mM and incubated for 30 min at 37° C. and 5% CO2. Thereafter, the medium was replaced with a new one and the cells were cultured for 4 h under the same conditions.
The determination of cell viability was carried out by MTT test. […] At the end of an experiment the growth medium was replaced with an MTT solution (0.5 mg/ml) and incubated for 30 min at 37° C. and 5% CO2. The MTT solution was then removed from the wells and DMSO was added to dissolve the formazan precipitate. Then the optical density was measured using a Multiscan (Thermo) spectrophotometer at a wavelength of 600 nm.

Balb/c mice = experiment: Behavioral despair test according to Porsolt; type: in vivo, mouse
Procedure: In order to detect a potential antidepressant activity of the peptide BDNF mimetics, the behavioral despair test was used in the original version (Porsolt R. D., Anton G., Blavet N., Jalfre M. Behavioral despair in rats: a new model sensitive to antidepressants. European Journal of Pharmacology, 1978, 47, 379-391).
For these experiments, male Balb/c mice weighing 20-22 g were used. On day 1, the animals were placed in a narrow vessel filled with water at 22° C. for 10 min. 60 min later a test compound was administered intraperitoneally (GSB-106 at 1 mg/kg, GBK-108 and GBK-201 at 0.01, 0.1, 1.0, 10.0 mg/kg). 24 hours later the animals were placed again in the same conditions to record the retention time of the characteristic immobile posture (abandoning any active defensive and exploratory behavior) for a 5 min test period. Imipramine was administered 60 min prior to the 5 min test period (on day 2). The control groups were treated with distilled water. Each experimental group comprised at least 6 mice.

HT-22 cells [2] = conditions: added 24 hours prior to glutamate
Procedure: The determination of cell viability was carried out by MTT test. MTT is a water soluble tetrazolium salt of yellow color which readily permeates cells. In living cells, MTT is converted into water insoluble formazan crystals of violet color. At the end of an experiment the growth medium was replaced with an MTT solution (0.5 mg/ml) and incubated for 30 min at 37° C. and 5% CO2. The MTT solution was then removed from the wells and DMSO was added to dissolve the formazan precipitate. Then the optical density was measured using a Multiscan (Thermo) spectrophotometer at a wavelength of 600 nm.

HT-22 neuronal cell line = experiment: Viability of HT-22 neuronal cell line without damaging factors (MTT test); type: cell-based, mouse; conditions: FIG. 1.1, different molar concentrations
Procedure: (§1) The rat adrenal […] pheochromocytoma cell line PC12 was obtained from the Cell Culture Museum, RAN Institute of Molecular Genetics. The immortalized mouse hippocampal cell line HT-22 was a gift from Prof. F. Viegant, Utrecht University, the Netherlands.
The cells were grown in DMEM medium containing 5% FBS and 2 mM L-glutamine. The cells were incubated at 37° C. and 5% CO2. The growth medium was changed at 24 hours after inoculation and every 3 days thereafter. The cells were re-plated every week into culture flasks with a total area of 75 cm^2.
All types of cells were plated in DMEM medium.

Hsp70 = experiment: Western blot of Hsp70 in HT-22 cells; type: cell-based, mouse; conditions: for amount of Hsp70: 24 h after addition, GK-1, GK-2 10^−8 and 10^−5 M, GK-3 10^−6 M, GK-4 10^−7 M, GK-5 10^−6 M
Procedure: (§2) The amount of Hsp70, Hsp32 and pTrkA was determined in the cytoplasmic fraction of HT-22 neuronal cells. For heat shock proteins, a test compound was added to the culture 24 hours prior to testing, before the cells were washed off the culture liquid with PBS. For pTrkA, a test compound was added to the culture immediately prior to the cell lysis just for 1 or 2 min, before the cells were washed off the culture liquid with PBS. Then the cells were mixed with the lysis buffer (50 mM Tris-HCl, 5 mM EDTA, 1 mM DTT, 1% Triton X-100, pH 7.5) at 4° C. and lysed for 5 min, then scraped off, transferred into a 1.5 ml centrifuge tube and centrifuged at 13000 rpm and 4° C. for 10 min. The supernatant containing cytosolic proteins was assayed by electrophoresis and immunoblotting. Proteins were separated on a 10% polyacrylamide gel (PAAG) and transferred from PAAG onto a PVDF membrane by electroelution for 45 min. Western blots were pre-incubated for 1 h in a TBST solution containing 1% Tween-20 and supplemented with 5% (w/v) skim milk. Western blots were then incubated with the primary polyclonal anti-Hsp32 antibody diluted 1:1000 or primary monoclonal anti-Hsp70 antibody diluted 1:1000 or primary monoclonal anti-phosphorylated tyrosine kinase A antibody diluted 1:1000 for 1 hour. Then the blots were washed and incubated with a secondary antibody conjugated to horseradish peroxidase (diluted 1:2000) for 1 hour. The detection of Hsp70, Hsp32 and pTrkA was carried out by the ECL reaction on a Kodak film.

Hsp32 = experiment: Western blot of Hsp32 in HT-22 cells; type: cell-based, mouse; conditions: for amount of Hsp32: 24 h after addition, GK-1, GK-2 10^−8 and 10^−5 M, GK-3 10^−6 M, GK-4 10^−7 M, GK-5 10^−6 M
Procedure: as §2

PC12 cell line = experiment: Cellular model of Parkinson's disease (MPTP, MTT test); type: cell-based, rat; conditions: added 24 hours prior to MPTP 1 mM
Procedure: To produce a model for Parkinson's disease, MPTP was used at a final concentration of 1 mM (Shimoke K., Chiba H. Nerve growth factor prevents 1-methyl-[…]-1,2,3,6-tetrahydropyridine-induced cell death via the Akt pathway by suppressing caspase-3-like activity using PC12 cells: relevance to therapeutic application for Parkinson's disease. J. Neurosci. Res. 2001, 63, 402-409). MPTP was added to the cell growth medium containing 1% FBS at 24 hours after passage. The peptides were added to the cell growth medium concurrently with MPTP or 24 h before MPTP. Cell viability was determined at 24 h using an MTT test.

PC12 cells = experiment: Differentiation of PC12 cells and modulation of the differentiation-inducing activity of NGF; type: cell-based, rat; conditions: for distance of branching points of the longest processes from the cell body / length of the longest processes: peptide + NGF (GK-3 10^−6 M, GK-4 10^−7 M, GK-5 10^−6 M)
Procedure: as §1
At the time of plating, either NGF (100 ng/ml, positive control) or a test compound was added to a final concentration of 10^−5 to 10^−9 M in the growth medium. Thereafter, the test peptides and NGF were added to the medium every 24 hours in one series of experiments and every 48 hours in another series, for a total of 6 days. The extent of cell differentiation was estimated on the basis of the shape and size of the cells and the number and length of the processes.
NGF was used as a positive control at a final concentration of 100 ng/ml.

tyrosine kinase A (TrkA) = target: T1, tyrosine kinase A (TrkA) (Mus musculus, UniProt Q3UFB7); experiment: Tyrosine kinase A phosphorylation in HT-22 cells (Western blot); type: cell-based; conditions: first minute of exposure
T1 construct: phosphorylation of tyrosine kinase A in cultured hippocampal neuronal cell line HT22; endogenous in cells; host or cells: HT-22 hippocampal neuronal cell line
T1 sequence (Q3UFB7 34-799): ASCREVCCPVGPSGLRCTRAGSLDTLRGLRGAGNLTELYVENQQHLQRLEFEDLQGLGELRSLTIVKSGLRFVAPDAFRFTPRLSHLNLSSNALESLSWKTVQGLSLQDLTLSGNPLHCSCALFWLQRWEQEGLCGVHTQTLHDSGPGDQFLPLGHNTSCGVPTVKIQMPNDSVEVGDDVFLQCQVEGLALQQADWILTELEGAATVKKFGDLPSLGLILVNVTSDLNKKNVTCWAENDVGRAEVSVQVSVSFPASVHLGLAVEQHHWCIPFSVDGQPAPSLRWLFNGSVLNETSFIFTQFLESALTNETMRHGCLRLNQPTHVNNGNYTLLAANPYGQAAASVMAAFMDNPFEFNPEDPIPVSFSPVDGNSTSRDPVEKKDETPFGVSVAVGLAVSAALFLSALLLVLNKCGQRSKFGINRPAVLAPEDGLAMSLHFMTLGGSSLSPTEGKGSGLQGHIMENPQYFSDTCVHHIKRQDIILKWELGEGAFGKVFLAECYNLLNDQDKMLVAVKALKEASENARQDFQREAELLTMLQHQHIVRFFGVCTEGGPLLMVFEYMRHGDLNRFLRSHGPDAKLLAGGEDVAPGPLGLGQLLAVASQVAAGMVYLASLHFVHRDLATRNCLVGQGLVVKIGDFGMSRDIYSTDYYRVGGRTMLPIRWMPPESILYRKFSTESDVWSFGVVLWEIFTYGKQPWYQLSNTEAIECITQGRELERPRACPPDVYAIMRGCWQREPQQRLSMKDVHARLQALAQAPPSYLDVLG
Procedure: as §2

[3] = GK-1 10^−5 M added 30 minutes before GK-2

With NCCCC[C@H](NC(=O)[C@H](CO)NC(=O)CCC(=O)O)C(=O)NCCCCCCNC(=O)[C@H](CCCCN)NC(=O)[C@H](CO)NC(=O)CCC(=O)O [GSB-106, bis-(N-monosuccinyl-seryl-lysine) hexamethylenediamide] the “neuronal survival under oxidative stress” value (HT-22 cells [1]) was “improved the neuronal survival”, the immobility time (Balb/c mice; GSB-106 1 mg/kg i.p., 24 h before the test) was “reducing the immobility time” and the “protective effect against glutamate cytotoxicity” value (HT-22 cells [2]) was “protective effect”.
For CSCC[C@H](NC(=O)[C@H](CC(=O)O)NC(C)=O)C(N)=O [GBK-201, N-acetyl-aspartyl-methionine amide] (Ac-Asp-Met-NH2), the immobility time (Balb/c mice; GBK-201 at 0.01 and 0.1 mg/kg i.p., 24 h before the test) was “increased the immobility time”.
NCCCC[C@H](NC(=O)[C@H](CCC(=O)O)NC(=O)CCC(=O)O)C(=O)NCCCCNC(=O)[C@H](CCCCN)NC(=O)[C@H](CCC(=O)O)NC(=O)CCC(=O)O [GK-2c, bis-(N-monosuccinyl-glutamyl-lysine)tetramethylenediamide] was tested, and the “viability of HT-22 cells” value (HT-22 neuronal cell line) was “reduced the viability”.
In the case of CC(=O)N[C@@H](CC(=O)O)C(=O)N[C@@H](CO)C(N)=O [GBK-108, N-acetyl-aspartyl-serine amide] (Ac-Asp-Ser-NH2), the “neuronal survival under oxidative stress” value (HT-22 cells [1]) is reported as “improved the neuronal survival” and the immobility time (Balb/c mice; GBK-108 at 10 mg/kg i.p., 24 h before the test) is reported as “increased the immobility time”.
In the case of CC(=O)NC(CCCCN)C(=O)NC(CCC(=O)O)C(=O)NCCCCCCNC(=O)C(CCC(=O)O)NC(=O)C(CCCCN)NC(C)=O (stereo not shown) [GK-4, bis-(N-acetyl-lysyl-glutamic acid) hexamethylenediamide], the “amount of Hsp70” value (Hsp70) is reported as “significant increase”, the “amount of Hsp32” value (Hsp32) is reported as “no effect on Hsp32” and the “protective effect against MPTP” value (PC12 cell line) is reported as “protective effect”. For the same compound, the “Max. length of cell processes, μm on day 6” value (from here on “Max. length of cell processes”) (PC12 cells; 10^−6M + NGF 30 ng/ml) was 67 ± 4.5′ μm, the “Max. length of cell processes” value (PC12 cells; 10^−6M + NGF 50 ng/ml) was 73 ± 9.5′ μm and the “Max. length of cell processes” value (PC12 cells; 10^−6M + NGF 100 ng/ml) was 55 ± 11.3′ μm. For the same compound, the “Max. length of cell processes” value (PC12 cells; 10^−7M + NGF 30 ng/ml) was 52 ± 10.3′ μm, the “Max. length of cell processes” value (PC12 cells; 10^−7M + NGF 50 ng/ml) was 56 ± 13.2′ μm and the “Max. length of cell processes” value (PC12 cells; 10^−7M + NGF 100 ng/ml) was 65 ± 12.2′ μm. The “intercalary neurons in the differentiated cell population” value (PC12 cells; GK-4 10^−7 M + NGF) was 90%, the “distance of branching points of the longest processes from the cell body” value (from here on “distance”) (PC12 cells) was 20 μm and the “length of the longest processes” value (PC12 cells) was 65 μm. For the same compound, the “protective effect against glutamate cytotoxicity” value (HT-22 cells [2]) was “protective effect”.
NCCCCCC(=O)NCC(=O)N[C@@H](CCCCN)C(N)=O [GK-5, N-(6-aminocaproyl)-glycyl-lysine amide] (H-[Ahx]-Gly-Lys-NH2) was tested, and the “amount of Hsp70” value (Hsp70) was “no effect on Hsp70”, the “Optical density (MTT)” value (HT-22 cells [1]; Table 1.8, 10^−5M, control 0.097 ± 0.009, H2O2 0.056 ± 0.009) was 0.065 ± 0.008 and the “Optical density (MTT)” value (HT-22 cells [1]; Table 1.8, 10^−6M, control 0.097 ± 0.009, H2O2 0.056 ± 0.009) was 0.066 ± 0.008^. For the same compound, the “Optical density (MTT)” value (HT-22 cells [1]; Table 1.8, 10^−7M, control 0.097 ± 0.009, H2O2 0.056 ± 0.009) was 0.062 ± 0.009, the “Optical density (MTT)” value (HT-22 cells [1]; Table 1.8, 10^−8M, control 0.097 ± 0.009, H2O2 0.056 ± 0.009) was 0.058 ± 0.007 and the “neuronal survival under oxidative stress” value (HT-22 cells [1]) was “improved the neuronal survival”. The “amount of Hsp32” value (Hsp32) was “increase in the synthesis of Hsp32”, the “protective effect against MPTP” value (PC12 cell line) was “inactive” and the “level of phosphorylated tyrosine kinase A” value (“level” for short) (tyrosine kinase A (TrkA)) was “increased”. For the same compound, the “distance” value (PC12 cells) was “not different”, the “length of the longest processes” value (PC12 cells) was 55 μm and the “differentiation of PC-12 cells” value (PC12 cells; peptide alone, 10^−8 to 10^−5 M, NGF 100 ng/ml as positive control) was “differentiation-promoting effect at 10^−6 M and 10^−5 M”.
For CN(C)CCCN1c2ccccc2CCc2ccccc21 [imipramine, Imipramine, reference compound], the immobility time (Balb/c mice; imipramine 60 min prior to the 5 min test) was “reducing the immobility time”.
With CC(=O)N[C@@H](CCCCN)C(=O)N[C@@H](CCC(=O)O)C(N)=O [GK-3, N-acetyl-lysyl-glutamic acid amide] (Ac-Lys-Glu-NH2) the “amount of Hsp70” value (Hsp70) was “no effect on Hsp70”, the “Optical density (MTT)” value (HT-22 cells [1]; Table 1.6, 10^−5M, control 0.111 ± 0.009, H2O2 0.093 ± 0.004) was 0.109 ± 0.019 and the “Optical density (MTT)” value (HT-22 cells [1]; Table 1.6, 10^−6M, control 0.111 ± 0.009, H2O2 0.093 ± 0.004) was 0.110 ± 0.014^. For the same compound, the “Optical density (MTT)” value (HT-22 cells [1]; Table 1.6, 10^−7M, control 0.111 ± 0.009, H2O2 0.093 ± 0.004) was 0.099 ± 0.014, the “Optical density (MTT)” value (HT-22 cells [1]; Table 1.6, 10^−8M, control 0.111 ± 0.009, H2O2 0.093 ± 0.004) was 0.091 ± 0.014 and the “neuronal survival under oxidative stress” value (HT-22 cells [1]) was “improved the neuronal survival”. For the same compound, the “amount of Hsp32” value (Hsp32) was “small increase”, the “protective effect against MPTP” value (PC12 cell line) was “protective effect” and the “level” value (tyrosine kinase A (TrkA)) was “increased”. For the same compound, the “distance” value (PC12 cells) was 25 μm and the “length of the longest processes” value (PC12 cells) was “not significantly different”.
For NCCCC[C@H](NC(=O)[C@H](CCC(=O)O)NC(=O)CCC(=O)O)C(N)=O [GK-1, N-monosuccinyl-glutamyl-lysine amide] (Suc-Glu-Lys-NH2), the “amount of Hsp70” value (Hsp70) was “no effect”, the “amount of Hsp70 induced by GK-2” value (Hsp70; [3]) was “no increase” and the “effect on the neuroprotective effect of GK-2” value (HT-22 cells [1]; [3]) was “eliminated the neuroprotective effect of GK-2”. For the same compound, the “neuronal survival under oxidative stress” value (HT-22 cells [1]) was “impaired the neuronal survival”, the “amount of Hsp32” value (Hsp32) was “no effect” and the “amount of Hsp32 induced by GK-2” value (Hsp32; [3]) was “no increase”. The “level” value (tyrosine kinase A (TrkA)) was “decreased” and the “decrease of the differentiation-promoting effect of NGF” value (PC12 cells; GK-1 10^−5 M, counting differentiated and undifferentiated cells) was 50%.
